pIC50: −log10 of the molar value.
Tested on: 616215-338-R-J1-PDC complex spheroid viability
Assay: Anticancer human tumor 616215-338-R-J1-PDC patient-derived colon adenocarcinoma cell line growth inhibition [POLQ]
Conditions: for pIC50: curve of first compound; for viability, T/C: stronger effect = lower value
In short: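 PDC + HUVEC + MSC complex spheroids; POLQ inhibitors ± partner drugs; top conc. at/near clinical Cmax, else 10 microM (SN-38 1 microM), half-log dilutions; 37 degrees C, 5% CO2.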

[1] = second compound 0.0316 µM, first compound 0.0316 µM
[2] = second compound 0.0316 µM, first compound 0.1 µM
[3] = second compound 0.0316 µM, first compound 0.316 µM
[4] = second compound 0.0316 µM, first compound 1 µM
[5] = second compound 0.0316 µM, first compound 3.16 µM
[6] = second compound 0.0316 µM, first compound 10 µM
[7] = second compound 0.1 µM, first compound 0.0316 µM
[8] = second compound 0.1 µM, first compound 0.1 µM
[9] = second compound 0.1 µM, first compound 0.316 µM
[10] = second compound 0.1 µM, first compound 1 µM
[11] = second compound 0.1 µM, first compound 3.16 µM
[12] = second compound 0.1 µM, first compound 10 µM
[13] = second compound 0.316 µM, first compound 0.0316 µM
[14] = second compound 0.316 µM, first compound 0.1 µM
[15] = second compound 0.316 µM, first compound 0.316 µM
[16] = second compound 0.316 µM, first compound 1 µM
[17] = second compound 0.316 µM, first compound 3.16 µM
[18] = second compound 0.316 µM, first compound 10 µM
[19] = second compound 1 µM, first compound 0.0316 µM
[20] = second compound 1 µM, first compound 0.1 µM
[21] = second compound 1 µM, first compound 0.316 µM
[22] = second compound 1 µM, first compound 1 µM
[23] = second compound 1 µM, first compound 3.16 µM
[24] = second compound 1 µM, first compound 10 µM
[25] = second compound 3.16 µM, first compound 0.0316 µM
[26] = second compound 3.16 µM, first compound 0.1 µM
[27] = second compound 3.16 µM, first compound 0.316 µM
[28] = second compound 3.16 µM, first compound 1 µM
[29] = second compound 3.16 µM, first compound 3.16 µM
[30] = second compound 3.16 µM, first compound 10 µM
[31] = second compound 10 µM, first compound 0.0316 µM
[32] = second compound 10 µM, first compound 0.1 µM
[33] = second compound 10 µM, first compound 0.316 µM
[34] = second compound 10 µM, first compound 1 µM
[35] = second compound 10 µM, first compound 3.16 µM
[36] = second compound 10 µM, first compound 10 µM
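Note: spheroids exposed to compounds for one week before readout.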
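Throughout, for viability, T/C: percent viability relative to DMSO vehicle wells taken as 100%.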

With Nc1ccn(C2OC(CO)C(O)C2(F)F)c(=O)n1 (stereo unspecified) + Cc1cccc(N(C)C(=O)C2C(O)CCN2c2nc(C)cc(C(F)(F)F)c2C#N)c1 the pIC50 (second compound 0.0316 µM) was 7.37, the pIC50 (second compound 0.1 µM) was 7.27 and the pIC50 (second compound 0.316 µM) was 7.24. For the same compound, the pIC50 (second compound 1 µM) was 7.30, the pIC50 (second compound 3.16 µM) was 7.24 and the pIC50 (second compound 10 µM) was 7.23. For the same compound, the viability, T/C [1] was 55.2%, the viability, T/C [2] was 36.6% and the viability, T/C [3] was 22.8%. The viability, T/C [4] was 30.8%, the viability, T/C [5] was 29.6% and the viability, T/C [6] was 27%. It also gave a viability, T/C [7] of 62.2%, a viability, T/C [8] of 37.8% and a viability, T/C [9] of 23.4%. It also gave a viability, T/C [10] of 28.1%, a viability, T/C [11] of 40.2% and a viability, T/C [12] of 28.8%. The viability, T/C [13] was 66.7%, the viability, T/C [14] was 36.1% and the viability, T/C [15] was 26%. For the same compound, the viability, T/C [16] was 25.7%, the viability, T/C [17] was 34.4% and the viability, T/C [18] was 28.9%. For the same compound, the viability, T/C [19] was 61.9%, the viability, T/C [20] was 32.2% and the viability, T/C [21] was 25.4%. For the same compound, the viability, T/C [22] was 28.8%, the viability, T/C [23] was 26.7% and the viability, T/C [24] was 27.1%. For the same compound, the viability, T/C [25] was 62.5%, the viability, T/C [26] was 40.4% and the viability, T/C [27] was 25.5%. The viability, T/C [28] was 29.4%, the viability, T/C [29] was 28.2% and the viability, T/C [30] was 26.8%. For the same compound, the viability, T/C [31] was 63.9%, the viability, T/C [32] was 40.5% and the viability, T/C [33] was 26%. For the same compound, the viability, T/C [34] was 27.1%, the viability, T/C [35] was 30.1% and the viability, T/C [36] was 26.2%.

Compound COc1cccc(OCCCN)c1-c1cc(Nc2cnc(C#N)cn2)n[nH]1 + Cc1cccc(N(C)C(=O)C2C(O)CCN2c2nc(C)cc(C(F)(F)F)c2C#N)c1 has a pIC50 (second compound 0.0316 µM) of 7.03, a pIC50 (second compound 0.1 µM) of 7.21 and a pIC50 (second compound 0.316 µM) of 7.23. It also gave a pIC50 (second compound 1 µM) of 7.27, a pIC50 (second compound 3.16 µM) of 7.25 and a pIC50 (second compound 10 µM) of 7.43. The viability, T/C (second compound 0.0316 µM, first compound 0.00316 µM) was 94.8%, the viability, T/C (second compound 0.0316 µM, first compound 0.01 µM) was 89.4% and the viability, T/C [1] was 73.1%. For the same compound, the viability, T/C [2] was 47.9%, the viability, T/C [3] was 38.9% and the viability, T/C [4] was 35.3%. The viability, T/C (second compound 0.1 µM, first compound 0.00316 µM) was 107%, the viability, T/C (second compound 0.1 µM, first compound 0.01 µM) was 97.8% and the viability, T/C [7] was 57.3%. It also gave a viability, T/C [8] of 47.8%, a viability, T/C [9] of 34.3% and a viability, T/C [10] of 29.9%. The viability, T/C (second compound 0.316 µM, first compound 0.00316 µM) was 99%, the viability, T/C (second compound 0.316 µM, first compound 0.01 µM) was 86.1% and the viability, T/C [13] was 61.7%. For the same compound, the viability, T/C [14] was 38.3%, the viability, T/C [15] was 37% and the viability, T/C [16] was 29.3%. It also gave a viability, T/C (second compound 1 µM, first compound 0.00316 µM) of 108%, a viability, T/C (second compound 1 µM, first compound 0.01 µM) of 89.9% and a viability, T/C [19] of 56.1%. The viability, T/C [20] was 41.3%, the viability, T/C [21] was 35.8% and the viability, T/C [22] was 26.7%. For the same compound, the viability, T/C (second compound 3.16 µM, first compound 0.00316 µM) was 86.8%, the viability, T/C (second compound 3.16 µM, first compound 0.01 µM) was 82.9% and the viability, T/C [25] was 60.4%. The viability, T/C [26] was 38.4%, the viability, T/C [27] was 43.8% and the viability, T/C [28] was 29.1%. It also gave a viability, T/C (second compound 10 µM, first compound 0.00316 µM) of 104%, a viability, T/C (second compound 10 µM, first compound 0.01 µM) of 81.3% and a viability, T/C [31] of 47.5%. For the same compound, the viability, T/C [32] was 38.3%, the viability, T/C [33] was 34.7% and the viability, T/C [34] was 21.2%.

Compound CCc1cc2c(N3CCc4c(cc(Cn5ccnc5)cc4-c4cn(C)nc4C(F)(F)F)C3=O)ccnc2c(OC)n1 + Cc1cccc(N(C)C(=O)C2C(O)CCN2c2nc(C)cc(C(F)(F)F)c2C#N)c1 has a pIC50 (second compound 0.0316 µM) of 5.06, a pIC50 (second compound 0.1 µM) of 5.20 and a pIC50 (second compound 0.316 µM) of 5.32. For the same compound, the pIC50 (second compound 1 µM) was 5.18, the pIC50 (second compound 3.16 µM) was 5.41 and the pIC50 (second compound 10 µM) was 5.24. For the same compound, the viability, T/C [1] was 98%, the viability, T/C [2] was 102% and the viability, T/C [3] was 86.4%. The viability, T/C [4] was 69.4%, the viability, T/C [5] was 63.9% and the viability, T/C [6] was 46.8%. For the same compound, the viability, T/C [7] was 107%, the viability, T/C [8] was 106% and the viability, T/C [9] was 83.2%. The viability, T/C [10] was 84.2%, the viability, T/C [11] was 52.7% and the viability, T/C [12] was 46.3%. It also gave a viability, T/C [13] of 106%, a viability, T/C [14] of 102% and a viability, T/C [15] of 94%. It also gave a viability, T/C [16] of 70.8%, a viability, T/C [17] of 54.5% and a viability, T/C [18] of 43.8%. For the same compound, the viability, T/C [19] was 113%, the viability, T/C [20] was 104% and the viability, T/C [21] was 88.4%. The viability, T/C [22] was 74.1%, the viability, T/C [23] was 58.8% and the viability, T/C [24] was 45.2%. It also gave a viability, T/C [25] of 97%, a viability, T/C [26] of 94.8% and a viability, T/C [27] of 95%. For the same compound, the viability, T/C [28] was 63%, the viability, T/C [29] was 59.3% and the viability, T/C [30] was 41.3%. The viability, T/C [31] was 98%, the viability, T/C [32] was 88.6% and the viability, T/C [33] was 90.9%. For the same compound, the viability, T/C [34] was 61.7%, the viability, T/C [35] was 60.7% and the viability, T/C [36] was 43.5%.

From PubChem BioAssay AID1963843 (Molecular Pharmacology Branch, DTP, NCI, 2024)
